# Where two headings read alike, the source gives them in different places.
# Columns and labels:
# [1] = system: endothelium denuded canine coronary artery; experiment: agonist-induced contraction in endothelium-denuded canine coronary artery under basal tone; format: cell-based, mongrel dogs; settings: for contractile response as agonist: no antagonist
# Experimental: (§1) Hearts were obtained from mongrel dogs anesthetized with sodium pentobarbital (30mg/kg, i.v.) and placed in oxygenated modified Krebs' solution of the following composition (millimolar): NaCl, 118; KCl, 4.6; CaCl2, 1.6; KH2PO4, 1.2; MgSO4 1.2, glucose, 10; NaHCO3 24.8 (pH 7.4). The left anterior descending and circumflex coronary arteries were dissected from the hearts, cleaned of fat and adhering tissue and cut into rings (approximately 2-3mm outer diameter and 4-5mm in length). The intimal surface of the rings was gently rubbed with a pair of forceps to remove the endothelium. Tissues were then mounted between two stainless steel hooks and placed in 10ml organ chambers constantly exposed to oxygenated modified Krebs' solution (95% O2/5% CO2; pH 7.4; 37°C). Tissues were equilibrated for 1 hour under an initial optimal passive force of 4g determined previously from length-tension experiments. The buffer was replaced every 15 minutes during equilibration. Isometric force was measured with Statham UC3 force transducers connected to a Beckman dynograph (R611). After lhr equilibration, tissues were depolarized twice with 50mM KCl for 30min with a 20min washing period between. The integrity of the endothelium was examined with acetylcholine (1µM), bradykinin (100nM), or the ionophore A23187 (1µM). Rings that relaxed to these agents were not used in this study.
# (§2) Tissues prepared as described in Example 1 were precontracted with PGF2α (10µM) which produced a tonic contraction that remained at or above 92.8±2.1% (n=14) of the original maximum force throughout the experiment. Cumulative concentration-response curves to 5-HT were generated in tissues incubated with either vehicle or antagonist for 1hr. In some experiments contraction was measured in tissues under basal tone upcn the cumulative addition of 5-HT. These tissues were treated with prazosin (1µM) to block any potential α adrenoceptor activation and in the absence or presence of antagonist.
# (§3) All results are expressed as mean ± S.E. where "n" represents the number of rings examined. No more than two rings were used from each animal for each compound studied. The relaxation data is expressed as percent relaxation of the contraction produced by PGF2α . The contraction data is expressed as percent of a maximal KCl (50mM) contraction. The EC50 was the concentration of the agonist producing half-maximal response and was determined by least squares linear regression analysis of the linear portion of the agonist concentration-response curve and expressed as -log EC50 (pEC50).
# [2] = system: 5-HT7 receptor in the dog coronary artery; experiment: antagonism of 5-HT-induced relaxation in endothelium-denuded canine coronary artery rings precontracted with PGF2α; format: cell-based, mongrel dogs; settings: for relaxant activity as agonist in canine coronary artery: agonist alone; for pA2 (-log KB): antagonist dissociation constant against 5-HT-induced relaxation, Schild analysis for compounds II and IV
# Experimental: as §1, §2, §3
# Apparent antagonist dissociation constants (KB) were determined for each antagonist according to the following equation: KB =((B))/((dose ratio -1)) [formula] where (B) is the concentration of the antagonist and dose ratio is the EC50 of the agonist in the presence of the antagonist divided by the EC50 of the agonist in vehicle treated tissues. […] Significant differences between vehicle and antagonist treated tissues were determined with Student's t-test. The alpha value was set a priori at 0.05.
# The data was also analyzed in accord with the procedure of Arunlakshana and Schild (1959). The dose ratio was determined at various concentrations of antagonist compound II or compound IV. If blockade is competitive under equilibrium conditions a plot of the logarithm (dose ratio - 1) against the negative logarithm of the molar concentration of antagonist should yield a straight line whose slope is not different from unity and whose intercept on the abscissa is the pA2, which is generally considered to be equivalent to -log KB.
# human 5-HT7 receptor = human 5-HT7 receptor (Homo sapiens, UniProt P34969); experiment: receptor binding studies at the human 5-HT7 receptor
# Source text: The general chemical structure for three particularly useful compounds of the invention (compounds III - V) are shown below: [drawing 3]
# [3] = bioavailability after oral administration in rats; format: in vivo; settings: comparative statement
# 5-HT7 receptor = 5-HT7 receptor (Rattus norvegicus, UniProt P32305); settings: receptor expressed in mammalian cells; Shen at 18200; cited from earlier work
# [4] = rings precontracted with PGF2α (10µM)
# [5] = antagonist 1µM, vessels under basal tone
# [6] = antagonist 0.3-10µM, rings precontracted with PGF2α (10µM)
# Sequence of human 5-HT7 receptor (P34969 whole entry): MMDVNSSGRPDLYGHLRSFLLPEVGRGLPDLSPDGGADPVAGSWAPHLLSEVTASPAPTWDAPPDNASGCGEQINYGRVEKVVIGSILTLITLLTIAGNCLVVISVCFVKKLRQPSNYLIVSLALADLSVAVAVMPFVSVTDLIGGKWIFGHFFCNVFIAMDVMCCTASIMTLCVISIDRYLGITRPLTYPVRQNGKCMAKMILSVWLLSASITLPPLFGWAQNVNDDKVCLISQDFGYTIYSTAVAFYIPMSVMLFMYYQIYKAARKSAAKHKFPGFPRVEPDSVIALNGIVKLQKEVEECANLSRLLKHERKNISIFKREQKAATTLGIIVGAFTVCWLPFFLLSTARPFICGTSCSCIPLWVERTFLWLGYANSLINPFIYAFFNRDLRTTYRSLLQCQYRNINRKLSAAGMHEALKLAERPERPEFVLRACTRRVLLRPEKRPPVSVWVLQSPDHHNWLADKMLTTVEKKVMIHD
# Sequence of 5-HT7 receptor (P32305 whole entry): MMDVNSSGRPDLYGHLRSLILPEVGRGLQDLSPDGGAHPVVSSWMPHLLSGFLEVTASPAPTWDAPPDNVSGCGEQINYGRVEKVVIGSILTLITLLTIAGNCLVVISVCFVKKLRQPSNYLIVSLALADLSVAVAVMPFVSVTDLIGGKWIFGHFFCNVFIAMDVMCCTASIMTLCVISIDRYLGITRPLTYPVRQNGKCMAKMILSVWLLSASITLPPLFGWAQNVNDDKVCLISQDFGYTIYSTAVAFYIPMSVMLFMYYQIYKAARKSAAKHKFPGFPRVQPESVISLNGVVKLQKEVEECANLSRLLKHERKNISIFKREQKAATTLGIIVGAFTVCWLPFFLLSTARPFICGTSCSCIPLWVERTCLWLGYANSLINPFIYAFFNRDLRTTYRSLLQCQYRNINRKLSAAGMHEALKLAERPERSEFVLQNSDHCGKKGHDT
compound,measurement,setting,value
"NCCc1c[nH]c2ccc(O)cc12 [5-HT, 5-hydroxytryptamine]",contractile response as agonist,[1]; vessels under basal tone,biphasic contractile response
"COc1ccc2[nH]cc(CCN)c2c1 [5-MeOT, 5-methoxytryptamine]",contractile response as agonist,[1]; vessels under basal tone,biphasic contractile response
"NCCc1c[nH]c2ccc(C(N)=O)cc12 [5-CT, 5-carboxamidotryptamine]",relaxant activity as agonist in canine coronary artery,[2],potent relaxant agonist
same,contractile response as agonist in the presence of compound IV,"[1]; basal tone, compound IV (1µm) present to block relaxation",concentration-dependently contracted
same,contractile response as agonist,[1]; vessels under basal tone,did not significantly contract
CC(C)n1cc2c3c(cccc31)C1CC(C(=O)NC3CCCCC3)CN(C)C1C2 (stereo not shown) [COMPOUND III],Kd,human 5-HT7 receptor; read-out: -log KD (converted),25.1 nM
same,Kd,human 5-HT7 receptor; read-out: KD,27.1 ± 1.5 nM
same,effect on 5-HT-induced relaxation,[2]; antagonist 1µM,blocked 5-HT-induced relaxation
same,pA2 (-log KB),[2]; [4],6.7
same,bioavailability,[3],greater bioavailability than the ester compounds II and V
CC(C)n1cc2c3c(cccc31)C1CC(C(=O)NC3CCCC3O)CN(C)C1C2 (stereo not shown) [COMPOUND IV],Kd,human 5-HT7 receptor; read-out: -log KD (converted),12.6 nM
same,Kd,human 5-HT7 receptor; read-out: KD,13.3 ± 1.2 nM
same,effect on 5-HT-induced relaxation,[2]; antagonist 10-100nM,blocked 5-HT-induced relaxation
same,pA2 (-log KB),[2]; [4],8.3
same,effect on sumatriptan-induced contraction,"[1]; antagonist 1µM, basal tone",did not significantly affect
same,effect on contractile response produced by 5-HT and 5-MeOT,[1]; [5],not affecting
same,effect on relaxant phase of the biphasic response to 5-HT and 5-MeOT,[1]; [5],significantly attenuated
same,bioavailability,[3],greater bioavailability than the ester compounds II and V
CC(O)C(C)OC(=O)C1CC2c3cccc4c3c(cn4C(C)C)CC2N(C)C1 (stereo not shown) [COMPOUND II],Kd,human 5-HT7 receptor; read-out: -log KD (converted),631 nM
same,Kd,human 5-HT7 receptor; read-out: KD,609 nM
same,effect on concentration-response curve to 5-HT (relaxation),[2]; [6],shifted the concentration-response curve to 5-HT significantly to the right
same,effect on maximum relaxant response to 5-HT,[2]; [6],did not alter
same,pA2 (-log KB),[2]; [4],6.5
CN(C)CCC=C1c2ccccc2CCc2ccccc21 [amitriptyline],affinity of the 5-HT7 receptor to the drug,5-HT7 receptor,high affinity
CNS(=O)(=O)Cc1ccc2[nH]cc(CCN(C)C)c2c1 [sumatriptan],relaxant activity as agonist in canine coronary artery,[2],lacking relaxant activity
